Read-outs that look alike come from different tables or passages of the source.
Tested on: BMP signal in MDA-231-D-BREFluc/Rluc cells
Assay: BMP signal inhibitory effect (AlphaScreen SureFire SMAD1 p-Ser463/465, BMP-6 stimulation)
Assay type: cell-based
Procedure: BMP Signal Inhibitory Effect
A BMP signal inhibitory activity of a compound of the present invention was evaluated according to the following method.
MDA-231-D-BREFluc/Rluc cells prepared according to the method described in Y. Katsuno et al., Oncogene, 27, 6322 (2008) were incubated at 37° C. for 2 hours together with test compounds, and BMP-6 (commercially available from R&D System, 507-BM-020) was then added thereto, and the mixture was additionally incubated at 37° C. for 30 minutes. A Lysis Buffer and Acceptor mix of AlphaScreen SureFire SMAD1 (p-Ser463/465) assay kit (commercially available from Perkin Elmer, TGRSM1S10K) were sequentially added thereto, the mixture was incubated at room temperature for 2 hours, and AlphaScreen Protein A kit (commercially available from Perkin Elmer, 6760617) was then added thereto, and standard AlphaScreen settings of Alpha Technology—compatible plate reader (commercially available from Perkin Elmer, EnSpire) was used for measurement.

[1] = BMP-6 stimulated MDA-231-D-BREFluc/Rluc cells, phospho-SMAD1 AlphaScreen, read-out: IC50

| IC50 [1] | Structure (SMILES) | IC50 |
| --- | --- | --- |
| 39 nM | CCn1cc(-c2ccnc(Nc3ccc(N4CCC5(CC4)CN(C(C)=O)C5)cc3)n2)c(-c2cccnc2)n1 [Example 21, 1-(7-(4-((4-(1-ethyl-3-(pyridin-3-yl)-1H-pyrazol-4-yl)pyrimidin-2-yl)amino)phenyl)-2,7-diazaspiro[3.5]nonan-2-yl)ethan-1-one] | – |
| 19 nM | CCn1cc(-c2ccnc(Nc3ccc(N4CCOCC4)cc3)n2)c(-c2cccnc2)n1 [Example 22, 4-(1-ethyl-3-(pyridin-3-yl)-1H-pyrazol-4-yl)-N-(4-morpholinophenyl)pyrimidin-2-amine] | – |
| 5.3 nM | CCn1cc(-c2ccnc(Nc3cccc(OCCN(C)C)c3)n2)c(-c2cccnc2)n1 [Example 24, N-(3-(2-(dimethylamino)ethoxy)phenyl)-4-(1-ethyl-3-(pyridin-3-yl)-1H-pyrazol-4-yl)pyrimidin-2-amine] | – |
| 18.5 nM | CCn1cc(-c2ccnc(Nc3ccc(-n4cnc(C)n4)cc3)n2)c(-c2cccnc2)n1 [Example 26, 4-(1-ethyl-3-(pyridin-3-yl)-1H-pyrazol-4-yl)-N-(4-(3-methyl-1H-1,2,4-triazol-1-yl)phenyl)pyrimidin-2-amine] | – |
| 24.6 nM | CCn1cc(-c2ccnc(Nc3ccc(-c4cnn(CCOC)c4)cc3)n2)c(-c2cccnc2)n1 [Example 28, 4-(1-Ethyl-3-(pyridin-3-yl)-1H-pyrazol-4-yl)-N-(4-(1-(2-methoxyethyl)-1H-pyrazol-4-yl)phenyl)pyrimidin-2-amine] | – |
| 32.9 nM | CCn1cc(-c2ccnc(Nc3ccc(-c4cn[nH]c4)cc3)n2)c(-c2cccnc2)n1 [Example 30, N-(4-(1H-pyrazol-4-yl)phenyl)-4-(1-ethyl-3-(pyridin-3-yl)-1H-pyrazol-4-yl)pyrimidin-2-amine] | – |
| 19.7 nM | CCn1cc(-c2ccnc(Nc3ccc(N4CCN(CC(=O)N5CCCCC5)CC4)cc3)n2)c(-c2cccnc2)n1 [Example 31, 2-(4-(4-((4-(1-Ethyl-3-(pyridin-3-yl)-1H-pyrazol-4-yl)pyrimidin-2-yl)amino)phenyl)piperazin-1-yl)-1-(piperidin-1-yl)ethan-1-one] | – |
| 21.3 nM | CCn1cc(-c2ccnc(Nc3ccc(N4CCN(C5CC5)CC4)cc3)n2)c(-c2cccnc2)n1 [Example 32, N-(4-(4-cyclopropylpiperazin-1-yl)phenyl)-4-(1-ethyl-3-(pyridin-3-yl)-1H-pyrazol-4-yl)pyrimidin-2-amine] | – |
| 17.3 nM | CCn1cc(-c2ccnc(Nc3cccc(N4CCN(C)CC4)c3)n2)c(-c2cccnc2)n1 [Example 34, 4-(1-ethyl-3-(pyridin-3-yl)-1H-pyrazol-4-yl)-N-(3-(4-methylpiperazin-1-yl)phenyl)pyrimidin-2-amine] | – |
| 22.5 nM | COCCn1cc(-c2ccnc(Nc3ccc(N4CCN(C)CC4)cc3)n2)c(-c2cccnc2)n1 [Example 35, 4-(1-(2-methoxyethyl)-3-(pyridin-3-yl)-1H-pyrazol-4-yl)-N-(4-(4-methylpiperazin-1-yl)phenyl)pyrimidin-2-amine] | – |
| 15.9 nM | COCCn1cc(-c2ccnc(Nc3ccc(N4CCN(CC5CC5)CC4)cc3)n2)c(-c2cccnc2)n1 [Example 36, N-(4-(4-(Cyclopropylmethyl)piperazin-1-yl)phenyl)-4-(1-(2-methoxyethyl)-3-(pyridin-3-yl)-1H-pyrazole-4-yl)pyrimidin-2-amine] | – |
| 11.2 nM | CCn1cc(-c2ccnc(Nc3ccc(-n4nc(C)nc4C)cc3)n2)c(-c2cccnc2)n1 [Example 39, N-(4-(3,5-dimethyl-1H-1,2,4-triazol-1-yl)phenyl)-4-(1-ethyl-3-(pyridin-3-yl)-1H-pyrazol-4-yl)pyrimidin-2-amine] | – |
| 5 nM | CCn1cc(-c2ccnc(Nc3cccc(CN(C)C)c3)n2)c(-c2cccnc2)n1 [Example 40, N-(3-((dimethylamino)methyl)phenyl)-4-(1-ethyl-3-(pyridin-3-yl)-1H-pyrazol-4-yl)pyrimidin-2-amine] | – |
| 36.9 nM | CCn1cc(-c2ccnc(Nc3ccc(Cn4cncn4)cc3)n2)c(-c2cccnc2)n1 [Example 42, N-(4-((1H-1,2,4-Triazol-1-yl)methyl)phenyl)-4-(1-ethyl-3-(pyridin-3-yl)-1H-pyrazol-4-yl)pyrimidin-2-amine] | – |
| 5.2 nM | CCn1cc(-c2ccnc(Nc3ccc(CCN4CCN(CCOC)CC4)cc3)n2)c(-c2cccnc2)n1 [Example 43, 4-(1-ethyl-3-(pyridin-3-yl)-1H-pyrazol-4-yl)-N-(4-(2-(4-(2-methoxyethyl)piperazin-1-yl)ethyl)phenyl)pyrimidin-2-amine] | – |
| 14.5 nM | CCn1cc(-c2ccnc(Nc3ccc(-n4ccnc4)cc3)n2)c(-c2cccnc2)n1 [Example 44, N-(4-(1H-Imidazol-1-yl)phenyl)-4-(1-ethyl-3-(pyridin-3-yl)-1H-pyrazol-4-yl)pyrimidin-2-amine] | – |
| 12.1 nM | CCn1cc(-c2ccnc(Nc3ccc(C4CCN(C)CC4)c(F)c3)n2)c(-c2cccnc2)n1 [Example 45, 4-(1-ethyl-3-(pyridin-3-yl)-1H-pyrazol-4-yl)-N-(3-fluoro-4-(1-methylpiperidin-4-yl)phenyl)pyrimidin-2-amine] | – |
| 10.2 nM | CCn1cc(-c2ccnc(Nc3ccc(N4CCN(C)CC4)c(OC)c3)n2)c(-c2cccnc2)n1 [Example 47, 4-(1-ethyl-3-(pyridin-3-yl)-1H-pyrazol-4-yl)-N-(3-methoxy-4-(4-methylpiperazin-1-yl)phenyl)pyrimidin-2-amine] | – |

Further lines, the compound ahead of its results:

| Structure (SMILES) | IC50 [1] | IC50 |
| --- | --- | --- |
| CCn1cc(-c2ccnc(Nc3ccc(C(=O)N4CCN(C(C)(C)C)CC4)cc3)n2)c(-c2cccnc2)n1 [Example 1, (4-(tert-butyl)piperazin-1-yl)(4-((4-(1-ethyl-3-(pyridin-3-yl)-1H-pyrazol-4-yl)pyrimidin-2-yl)amino)phenyl)methanone] | 6.9 nM | – |
| CCn1cc(-c2ccnc(Nc3ccc(C(=O)N4CCCCC4)cc3)n2)c(-c2cccnc2)n1 [Example 2, (4-((4-(1-ethyl-3-(pyridin-3-yl)-1H-pyrazol-4-yl)pyrimidin-2-yl)amino)phenyl)(piperidin-1-yl)methanone] | 40.7 nM | – |
| CCn1cc(-c2ccnc(Nc3ccc(C(=O)N(C)C4CCN(C)CC4)cc3)n2)c(-c2cccnc2)n1 [Example 4, 4-((4-(1-ethyl-3-(pyridin-3-yl)-1H-pyrazol-4-yl)pyrimidin-2-yl)amino)-N-methyl-N-(1-methylpiperidin-4-yl)benzamide] | 16.3 nM | – |
| CCn1cc(-c2ccnc(Nc3ccc(C(=O)N(C)C4CC5CCC(C4)N5C(C)C)cc3)n2)c(-c2cccnc2)n1 (stereo not drawn) [Example 5, 4-((4-(1-Ethyl-3-(pyridin-3-yl)-1H-pyrazol-4-yl)pyrimidin-2-yl)amino)-N-(8-isopropyl-8-azabicyclo[3.2.1]octan-3-yl)-N-methylbenzamide] | – | 16.9 nM |
| CCn1cc(-c2ccnc(Nc3ccc(C(C)=O)cc3)n2)c(-c2cccnc2)n1 [Example 6, 1-(4-((4-(1-Ethyl-3-(pyridin-3-yl)-1H-pyrazol-4-yl)pyrimidin-2-yl)amino)phenyl) ethan-1-one] | 29.2 nM | – |
| CCn1cc(-c2ccnc(Nc3ccc4c(n3)CCN(C)C4)n2)c(-c2cccnc2)n1 [Example 7, N-(4-(1-ethyl-3-(pyridin-3-yl)-1H-pyrazol-4-yl)pyrimidin-2-yl)-6-methyl-5,6,7,8-tetrahydro-1,6-naphthyridin-2-amine] | 144 nM | – |
| CN1CCc2cc(Nc3nccc(-c4cn(C5COC5)nc4-c4cccnc4)n3)ccc2C1 [Example 8, 2-methyl-N-(4-(1-(oxetan-3-yl)-3-(pyridin-3-yl)-1H-pyrazol-4-yl)pyrimidin-2-yl)-1,2,3,4-tetrahydroisoquinolin-6-amine] | 6.8 nM | – |
| CCn1cc(-c2ccnc(Nc3ccc4c(c3)CN(C3COC3)C4)n2)c(-c2cccnc2)n1 [Example 9, N-(4-(1-Ethyl-3-(pyridin-3-yl)-1H-pyrazol-4-yl)pyrimidin-2-yl)-2-(oxetan-3-yl)isoindolin-5-amine] | 23.5 nM | – |
| CN1CCc2cc(Nc3nccc(-c4cn(CC5CCOC5)nc4-c4cccnc4)n3)ccc2C1 (stereo not drawn) [Example 10, 2-Methyl-N-(4-(3-(pyridin-3-yl)-1-((tetrahydrofuran-3-yl)methyl)-1H-pyrazol-4-yl)pyrimidin-2-yl)-1,2,3,4-tetrahydroisoquinolin-6-amine] | 5.8 nM | – |
| CCn1cc(-c2ccnc(Nc3ccc(C4CCN(C5COC5)CC4)cc3)n2)c(-c2cccnc2)n1 [Example 11, 4-(1-Ethyl-3-(pyridin-3-yl)-1H-pyrazol-4-yl)-N-(4-(1-(oxetan-3-yl)piperidin-4-yl)phenyl)pyrimidin-2-amine] | 29.4 nM | – |
| COCCN1CCC(c2ccc(Nc3nccc(-c4cn(C5COC5)nc4-c4cccnc4)n3)cc2)CC1 [Example 12, N-(4-(1-(2-methoxyethyl)piperidin-4-yl)phenyl)-4-(1-(oxetan-3-yl)-3-(pyridin-3-yl)-1H-pyrazol-4-yl)pyrimidin-2-amine] | 6.6 nM | – |
| COCCn1cc(-c2ccnc(Nc3ccc(C4CCN(C5COC5)CC4)cc3)n2)c(-c2cccnc2)n1 [Example 13] | 26.8 nM | – |
| CCn1cc(-c2ccnc(Nc3ccc(-c4cn5ccccc5n4)cc3)n2)c(-c2cccnc2)n1 [Example 14, 4-(1-ethyl-3-(pyridin-3-yl)-1H-pyrazol-4-yl)-N-(4-(imidazo[1,2-a]pyridin-2-yl)phenyl)pyrimidin-2-amine] | 36.4 nM | – |
| CCn1cc(-c2ccnc(Nc3ccc(N4CCN(CCOC)CC4)c(F)c3)n2)c(-c2cccnc2)n1 [Example 18, 4-(1-Ethyl-3-(pyridin-3-yl)-1H-pyrazol-4-yl)-N-(3-fluoro-4-(4-(2-methoxyethyl)piperazin-1-yl)phenyl)pyrimidin-2-amine] | 30.8 nM | – |
| CCn1cc(-c2ccnc(Nc3ccc(N4CCC(N5CCN(C)CC5)CC4)cc3)n2)c(-c2cccnc2)n1 [Example 20] | 11.8 nM | – |
